Measurements published in patent publication US20140018361A1, “IRAK INHIBITORS AND USES THEREOF” (Nimbus Iris, Inc., priority 2012, published 2014).
Structures can show the parent of a compound that is named as a salt.

Target: T1, IRAK4 (Homo sapiens, UniProt Q9NWZ3)
T1 construct: purchased CARNA Bioscience 09-145
T1 sequence (Q9NWZ3 1-460): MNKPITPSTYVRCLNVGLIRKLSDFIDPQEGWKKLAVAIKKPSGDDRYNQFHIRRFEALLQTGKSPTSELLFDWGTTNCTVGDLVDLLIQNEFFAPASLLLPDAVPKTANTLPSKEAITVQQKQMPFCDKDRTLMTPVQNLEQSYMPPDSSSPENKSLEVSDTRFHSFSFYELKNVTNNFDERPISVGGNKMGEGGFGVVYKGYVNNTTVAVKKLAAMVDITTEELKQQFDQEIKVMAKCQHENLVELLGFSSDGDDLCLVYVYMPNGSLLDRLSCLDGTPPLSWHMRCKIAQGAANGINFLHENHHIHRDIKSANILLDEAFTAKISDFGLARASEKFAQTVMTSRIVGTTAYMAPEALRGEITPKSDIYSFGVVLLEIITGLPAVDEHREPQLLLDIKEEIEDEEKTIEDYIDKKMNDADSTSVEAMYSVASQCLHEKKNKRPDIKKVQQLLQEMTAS
Assay: IRAK-4 activity inhibition assay (Caliper)
Type: biochemical
Conditions: 3.5 nM IRAK4, 1.5 μM Peptide 8, 37 μM ATP, 28° C., 40 minutes
Experimental: A 1× kinase base buffer was prepared from 50 mM HEPES, pH 7.5 and 0.0015% Brij-35. A stop buffer was prepared from 100 mM HEPES, pH 7.5, 0.015% Brij-35, 0.2% Coating Reagent #3, and 50 mM EDTA.
Test compound was diluted to 50× of the final desired highest inhibitor concentration in reaction by 100% DMSO. 100 ul of this compound dilution was transferred to a well in a 96-well plate.
Test compound was serially diluted by transferring 30 μl to 60 μl of 100% DMSO in the next well and so forth for a total of 10 concentrations. 100 μl of 100% DMSO was added to two empty wells for no compound control and no enzyme control in the same 96-well plate.
A new 96-well plate was marked as intermediate plate. 5 μl of compound serial dilution was transferred from source plate to the corresponding wells of the intermediate plate. 45 μl of 1× kinase base buffer (KB buffer) was added to each well of the intermediate plate. The intermediate plate was placed for 10 min on a shaker.
5 μl of each well was transferred from the 96-well intermediate plate to a 384-well plate in duplicates. For example, A1 of the 96-well plate is transferred to A1 and A2 of the 384-well plate. A2 of the 96-well plate is transferred to A3 and A4 of the 384-well plate, and so on.
IRAK4 and DTT in 1× kinase base buffer was added. The 2.5× enzyme mix contained 8.8 nM IRAK4 and 5 mM DTT.
Peptide 8, ATP, MgCl2 and MnCl2 were added in the 1× kinase base buffer. The 2.5× peptide mix contained 3.75 μM peptide 8, 92.5 μM ATP, 12.5 mM MgCl2 and 2.5 mM MnCl2.
Assay plate already contained 5 μl of compound in 10% DMSO. Added 10 μl of 2.5× enzyme solution to each well of the 384-well assay plate, except no enzyme control wells. The final concentration of IRAK4 in reaction was 3.5 nM. Added 10 μl of 1× kinase base buffer to no enzyme control wells in the assay plate. Incubated at room temperature for 10 min.
Added 10 μl of 2.5× peptide solution to each well of the 384-well assay plate. The final concentration of Peptide 8 and ATP was 1.5 μM and 37 μM, respectively. Incubated at 28° C. for 40 minutes. Added 25 μl of stop buffer to stop reaction. Collected data on Caliper.
Copied conversion % data from Caliper program. Converted conversion % values to percent inhibition values. Percent inhibition=(max−conversion %)/(max−min)*100, where “max” means the conversion % of DMSO control and “min” means the conversion % of no enzyme control.

SMILES | IC50 [nM]
Fc1c[nH]c2ncnc(O[C@H]3CC[C@H](N4CCOCC4)CC3)c12 [Compound I-6, 4-((trans)-4-((5-fluoro-7H-pyrrolo[2,3-d]pyrimidin-4-yl)oxy)cyclohexyl)morpholine] | 1000 to 10000
CN(C)[C@H]1CC[C@H](Nc2ncnc3oc4c(c23)CCC4)CC1 [Compound I-10, N,N-dimethyl-4-N-[7-oxa-9,11-diazatricyclo[6.4.0.0[2,6]]dodeca-1(12),2(6),8,10-tetraen-12-yl]-trans-cyclohexane-1,4-diamine] | 1000 to 10000
N#Cc1c[nH]c2ncnc(O[C@H]3CC[C@H](N4CCOCC4)CC3)c12 [Compound I-7, 4-(trans-(4-morpholinocyclohexyl)oxy)-7H-pyrrolo[2,3-d]pyrimidine-5-carbonitrile] | 1000 to 10000
CN(C)[C@H]1CC[C@H](Nc2ncnc3[nH]cc(F)c23)CC1 [Compound I-3, (trans)-N^1-(5-fluoro-7H-pyrrolo[2,3-d]pyrimidin-4-yl)-N^4,N^4-dimethylcyclohexane-1,4-diamine] | 100 to 1000
CN(C)[C@H]1CC[C@H](Nc2nc(Nc3ccccc3)nc3[nH]ccc23)CC1 [Compound I-2, 4-N-[4-(dimethylamino)cyclohexyl]-2-N-phenyl-7H-pyrrolo[2,3-d]pyrimidine-2,4-diamine] | 100 to 1000
CN(C)[C@H]1CC[C@H](Oc2ncnc3[nH]cc(F)c23)CC1 [Compound I-4, (trans)-4-((5-fluoro-7H-pyrrolo[2,3-d]pyrimidin-4-yl)oxy)-N,N-dimethylcyclohexanamine] | 1000 to 10000
CN(C)[C@H]1CC[C@H](Nc2nc(N)nc3[nH]ccc23)CC1 [Compound I-8, 4-N-[4-(dimethylamino)cyclohexyl]-7H-pyrrolo[2,3-d]pyrimidine-2,4-diamine] | ≥ 10000
CN(C)[C@H]1CC[C@H](Nc2ncnc3[nH]cc(C#N)c23)CC1 [Compound I-1, 4-[[4-(dimethylamino)cyclohexyl]amino]-7H-pyrrolo[2,3-d]pyrimidine-5-carbonitrile] | 100 to 1000
CN(C)[C@H]1CC[C@H](Nc2ncnc3occc23)CC1 [Compound I-12, N^1-(furo[2,3-d]pyrimidin-4-yl)-trans-N^4,N^4-dimethylcyclohexane-1,4-diamine formate] | ≥ 10000
N[C@H]1CC[C@H](Nc2ncnc3oc4c(c23)CCC4)CC1 [Compound I-11, N^1-(6,7-dihydro-5H-cyclopenta[4,5]furo[2,3-d]pyrimidin-4-yl)-trans-cyclohexane-1,4-diamine] | ≥ 10000
CN(C)[C@H]1CC[C@H](Oc2ncnc3occc23)CC1 [Compound I-14, trans-4-(furo[2,3-d]pyrimidin-4-yloxy)-N,N-dimethylcyclohexanamine formate] | ≥ 10000
CN(C)[C@H]1CC[C@H](Oc2ncnc3[nH]cc(C#N)c23)CC1 [Compound I-5, 4-[[4-(dimethylamino)cyclohexyl]oxy]-7H-pyrrolo[2,3-d]pyrimidine-5-carbonitrile] | 1000 to 10000
c1nc(O[C@H]2CC[C@H](N3CCOCC3)CC2)c2ccoc2n1 [Compound I-13, 4-(((trans)-4-morpholinocyclohexyl)oxy)furo[2,3-d]pyrimidine] | ≥ 10000
